Assay results reported in paper PMC4138103 (PLoS ONE, 2014).
Where two headings read alike, the source gives them in different places.

Test system: Sprague-Dawley rats
Assay: Retinoid analyses in liver, serum and kidney
Assay type: in vivo, Rattus norvegicus
Settings: for CED, Kidney all-trans RA amount / CED, Kidney all-trans RA concentration / CED, Kidney retinol amount / CED, Kidney retinol concentration / CED, Liver retinol amount / CED, Liver retinol concentration / CED, Liver retinyl esters amount / CED, Liver retinyl esters concentration / CED, Serum retinol concentration / CED-L, Kidney all-trans RA amount / CED-L, Kidney all-trans RA concentration / CED-L, Kidney retinol amount / CED-L, Kidney retinol concentration / CED-L, Liver retinol amount / CED-L, Liver retinol concentration / CED-L, Liver retinyl esters amount / CED-L, Liver retinyl esters concentration / CED-L, Serum retinol concentration / CED, Liver 9c-4o-13,14-dh-RA amount / CED, Liver 9c-4o-13,14-dh-RA concentration / CED-L, Liver 9c-4o-13,14-dh-RA amount / CED-L, Liver 9c-4o-13,14-dh-RA concentration / CED, Liver all-trans RA amount / CED, Liver all-trans RA concentration / CED-L, Liver all-trans RA amount / CED-L, Liver all-trans RA concentration / CED, Kidney retinyl esters amount / CED, Kidney retinyl esters concentration / CED-L, Kidney retinyl esters amount / CED-L, Kidney retinyl esters concentration: adipose tissue concentration based; for Emax: Rattus norvegicus, controls vs high dose according to the fitted model
Description: Retinoids in liver, serum, and kidney were analyzed according to Schmidt et al.. The polar retinoids 9-cis-retinoic acid (9-cis-RA), 13-cis-retinoic acid (13-cis-RA), 13-cis-4-oxo-retinoic acid (13-cis-4-o-RA), 9-cis-4-oxo-13,14-dihydro-retinoic acid (9-cis-4-o-13,14-dh-RA), all-trans retinoic acid (all-trans RA) and the apolar retinoids retinol and retinyl palmitate were extracted by a single liquid-extraction, separated from each other via solid-phase extraction using an aminopropyl phase, and then injected onto two different HPLC systems that were coupled with UV detection. […] The limits of detection (LOD) for all-trans RA and 9c-4o-13,14-dh-RA were 0.7 and 1.0 pmol/g tissue, and 0.3 and 0.6 pmol/ml serum, respectively. Retinol and retinyl palmitate were separated on a J'sphere ODS-H80 (4.6×150 mm, 4 µm particle size) obtained from YMC (Schermbeck, Germany), and were detected at 325 nm. The LOD for retinol and retinyl palmitate were 5.6 and 5.5 pmol/g tissue, and 4.2 and 4.2 pmol/ml serum, respectively.
Data were also analyzed using the BMD method, which is based on dose-response modeling of the full data set using a nested family of exponential and Hill models. The analyses were done on data of males and females combined, using sex as a covariate. […] In that case, different Critical Effect Doses (CEDs) and CEDs at the lowest bound of the confidence interval (CED-L) were generated for each sex. If no difference between sexes is detected, a CED and CED-Ls for the combined data is generated. However, this was also done if the curve fits are close, and separate analyses for males and females were then performed manually. CEDs and CED-Ls were calculated at the predefined Critical Effect Size (CES) of 5% (EFSA standard) or 10%.

Clc1cc(Cl)c(-c2cc(Cl)c(Cl)c(Cl)c2Cl)cc1Cl [PCB 180, 2,2′,3′,4,4′,5,5′-heptachlorobiphenyl]
CED, Kidney all-trans RA amount (F, CES 5%, model E2): 3290 µg/g lipid | CED, Kidney all-trans RA concentration (F, CES 5%, model E2): 2930 µg/g lipid | CED, Kidney retinol amount (F, CES 5%, model E2): 2240 µg/g lipid | CED, Kidney retinol concentration (F, CES 5%, model E2): 2060 µg/g lipid | CED, Liver retinol amount (F, CES 5%, model E2): 2840 µg/g lipid | CED, Liver retinol concentration (F, CES 5%, model E2): 1000 µg/g lipid | CED, Liver retinyl esters amount (F, CES 5%, model E2): 1620 µg/g lipid | CED, Liver retinyl esters concentration (F, CES 5%, model E2): 793 µg/g lipid | CED, Serum retinol concentration (F, CES 5%, model E2): 2470 µg/g lipid | CED-L, Kidney all-trans RA amount (F, CES 5%, model E2): 2092 µg/g lipid | CED-L, Kidney all-trans RA concentration (F, CES 5%, model E2): 2052 µg/g lipid | CED-L, Kidney retinol amount (F, CES 5%, model E2): 1398 µg/g lipid | CED-L, Kidney retinol concentration (F, CES 5%, model E2): 1346 µg/g lipid | CED-L, Liver retinol amount (F, CES 5%, model E2): 1476 µg/g lipid | CED-L, Liver retinol concentration (F, CES 5%, model E2): 762 µg/g lipid | CED-L, Liver retinyl esters amount (F, CES 5%, model E2): 1206 µg/g lipid | CED-L, Liver retinyl esters concentration (F, CES 5%, model E2): 670 µg/g lipid | CED-L, Serum retinol concentration (F, CES 5%, model E2): 1521 µg/g lipid | CED, Liver 9c-4o-13,14-dh-RA amount (F, CES 5%, model E4): 59.6 µg/g lipid | CED, Liver 9c-4o-13,14-dh-RA concentration (F, CES 5%, model E4): 55.5 µg/g lipid | CED-L, Liver 9c-4o-13,14-dh-RA amount (F, CES 5%, model E4): 37.4 µg/g lipid | CED-L, Liver 9c-4o-13,14-dh-RA concentration (F, CES 5%, model E4): 39.6 µg/g lipid | CED, Kidney all-trans RA amount (F, CES 10%, model E2): 6430 µg/g lipid | CED, Kidney all-trans RA concentration (F, CES 10%, model E2): 5720 µg/g lipid | CED, Kidney retinol amount (F, CES 10%, model E2): 4370 µg/g lipid | CED, Kidney retinol concentration (F, CES 10%, model E2): 4030 µg/g lipid | CED, Liver retinol amount (F, CES 10%, model E2): 5820 µg/g lipid | CED, Liver retinol concentration (F, CES 10%, model E2): 2060 µg/g lipid | CED, Liver retinyl esters amount (F, CES 10%, model E2): 3300 µg/g lipid | CED, Liver retinyl esters concentration (F, CES 10%, model E2): 1630 µg/g lipid | CED, Serum retinol concentration (F, CES 10%, model E2): 4820 µg/g lipid | CED-L, Kidney all-trans RA amount (F, CES 10%, model E2): 4088 µg/g lipid | CED-L, Kidney all-trans RA concentration (F, CES 10%, model E2): 4009 µg/g lipid | CED-L, Kidney retinol amount (F, CES 10%, model E2): 2731 µg/g lipid | CED-L, Kidney retinol concentration (F, CES 10%, model E2): 2630 µg/g lipid | CED-L, Liver retinol amount (F, CES 10%, model E2): 3032 µg/g lipid | CED-L, Liver retinol concentration (F, CES 10%, model E2): 1565 µg/g lipid | CED-L, Liver retinyl esters amount (F, CES 10%, model E2): 2477 µg/g lipid | CED-L, Liver retinyl esters concentration (F, CES 10%, model E2): 1375 µg/g lipid | CED-L, Serum retinol concentration (F, CES 10%, model E2): 2970 µg/g lipid | CED, Liver 9c-4o-13,14-dh-RA amount (F, CES 10%, model E4): 124 µg/g lipid | CED, Liver 9c-4o-13,14-dh-RA concentration (F, CES 10%, model E4): 115 µg/g lipid | CED-L, Liver 9c-4o-13,14-dh-RA amount (F, CES 10%, model E4): 77.9 µg/g lipid | CED-L, Liver 9c-4o-13,14-dh-RA concentration (F, CES 10%, model E4): 82.1 µg/g lipid | CED, Kidney retinol amount (M, CES 5%, model E2): 897 µg/g lipid | CED, Kidney retinol concentration (M, CES 5%, model E2): 863 µg/g lipid | CED, Liver all-trans RA amount (M, CES 5%, model E2): 95.1 µg/g lipid | CED, Liver all-trans RA concentration (M, CES 5%, model E2): 1920 µg/g lipid | CED, Liver retinol amount (M, CES 5%, model E2): 1860 µg/g lipid | CED, Liver retinyl esters amount (M, CES 5%, model E2): 620 µg/g lipid | CED-L, Kidney retinol amount (M, CES 5%, model E2): 638 µg/g lipid | CED-L, Kidney retinol concentration (M, CES 5%, model E2): 640 µg/g lipid | CED-L, Liver all-trans RA amount (M, CES 5%, model E2): 36.8 µg/g lipid | CED-L, Liver all-trans RA concentration (M, CES 5%, model E2): 1143 µg/g lipid | CED-L, Liver retinol amount (M, CES 5%, model E2): 1111 µg/g lipid | CED-L, Liver retinyl esters amount (M, CES 5%, model E2): 525 µg/g lipid | CED, Kidney retinyl esters amount (M, CES 5%, model E4): 38.8 µg/g lipid | CED, Kidney retinyl esters concentration (M, CES 5%, model E4): 42.2 µg/g lipid | CED, Liver retinol concentration (M, CES 5%, model E4): 31.2 µg/g lipid | CED, Liver retinyl esters concentration (M, CES 5%, model E4): 108 µg/g lipid | CED-L, Kidney retinyl esters amount (M, CES 5%, model E4): 12.5 µg/g lipid | CED-L, Kidney retinyl esters concentration (M, CES 5%, model E4): 13.6 µg/g lipid | CED-L, Liver retinol concentration (M, CES 5%, model E4): 18.8 µg/g lipid | CED-L, Liver retinyl esters concentration (M, CES 5%, model E4): 60.1 µg/g lipid | CED, Kidney retinol amount (M, CES 10%, model E2): 1750 µg/g lipid | CED, Kidney retinol concentration (M, CES 10%, model E2): 1690 µg/g lipid | CED, Liver all-trans RA amount (M, CES 10%, model E2): 196 µg/g lipid | CED, Liver all-trans RA concentration (M, CES 10%, model E2): 3750 µg/g lipid | CED, Liver retinol amount (M, CES 10%, model E2): 3820 µg/g lipid | CED, Liver retinyl esters amount (M, CES 10%, model E2): 1270 µg/g lipid | CED-L, Kidney retinol amount (M, CES 10%, model E2): 1244 µg/g lipid | CED-L, Kidney retinol concentration (M, CES 10%, model E2): 1250 µg/g lipid | CED-L, Liver all-trans RA amount (M, CES 10%, model E2): 76 µg/g lipid | CED-L, Liver all-trans RA concentration (M, CES 10%, model E2): 2233 µg/g lipid | CED-L, Liver retinol amount (M, CES 10%, model E2): 2282 µg/g lipid | CED-L, Liver retinyl esters amount (M, CES 10%, model E2): 1078 µg/g lipid | CED, Kidney retinyl esters amount (M, CES 10%, model E4): 78.3 µg/g lipid | CED, Kidney retinyl esters concentration (M, CES 10%, model E4): 85.2 µg/g lipid | CED, Liver retinol concentration (M, CES 10%, model E4): 66.6 µg/g lipid | CED, Liver retinyl esters concentration (M, CES 10%, model E4): 225 µg/g lipid | CED-L, Kidney retinyl esters amount (M, CES 10%, model E4): 25.2 µg/g lipid | CED-L, Kidney retinyl esters concentration (M, CES 10%, model E4): 27.5 µg/g lipid | CED-L, Liver retinol concentration (M, CES 10%, model E4): 40.0 µg/g lipid | CED-L, Liver retinyl esters concentration (M, CES 10%, model E4): 126 µg/g lipid | Emax (F, model E2, read-out: Maximum response, Kidney all-trans RA amount): 18.2% | Emax (F, model E2, read-out: Maximum response, Kidney all-trans RA concentration): 20.7% | Emax (F, model E2, read-out: Maximum response, Kidney retinol amount): 28% | Emax (F, model E2, read-out: Maximum response, Kidney retinol concentration): 30.7% | Emax (F, model E2, read-out: Maximum response, Liver retinol amount): -18.5% | Emax (F, model E2, read-out: Maximum response, Liver retinol concentration): -43.9% | Emax (F, model E2, read-out: Maximum response, Liver retinyl esters amount): -30.1% | Emax (F, model E2, read-out: Maximum response, Liver retinyl esters concentration): -51.9% | Emax (F, model E2, read-out: Maximum response, Serum retinol concentration): 25%
